Laboratory results: patent US9206128B2 (Constellation Pharmaceuticals, Inc., priority 2011, dated 2015)

Key:
Y641N EZH2 = Y641N EZH2 (Homo sapiens, UniProt Q15910, Y641N); assay: Y641N EZH2 activity inhibition assay (as EZH2 assay, reconstituted H3K27Me2 oligonucleosomes as substrate); assay type: biochemical; conditions: Y641N EZH2 mutant enzyme
Procedure: (§1) EZH2 Assay: Assays were carried out by mixing rPRC2 together with biotinylated oligonucleosome substrates in the presence of the radio-labeled enzyme co-factor, S-adenosyl-L-methionine (^3H SAM) (Perkin Elmer) and monitoring the enzymatically mediated transfer of tritiated methyl groups from ^3H SAM to histone lysine residues. The amount of resulting tritiated methyl histone product was measured by first capturing the biotinylated oligonucleosomes in streptavidin (SAV) coated FlashPlates (Perkin Elmer), followed by a wash step to remove un-reacted ^3H SAM, and then counting on a TopCount NXT 384 well plate scintillation counter (Perkin Elmer). The final assay conditions for EZH2 were as follows: 50 mM Tris Buffer pH 8.5, 1 mM DTT, 69 μM Brij-35 detergent, 5.0 mM MgCl2, 0.1 mg/mL BSA, 0.2 μM ^3H SAM, 0.2 μM biotinylated oligonucleosomes, 3.6 μM H3K27me3 peptide and 2 nM EZH2.
(§2) A 12.5 μL volume of the HMT enzyme, H3K27me3 peptide and oligonucleosome substrate in assay buffer was added to each well of the assay plate using a Multidrop Combi (ThermoFisher). Compounds were pre-incubated with the enzyme for 20 min, followed by initiation of the methyltransferase reaction by addition of 12.5 μL of 3H SAM in assay buffer (final volume=25 μL). The final concentrations of compounds ranged from a top default concentration of 80 μM down to 0.16 μM in ten 2-fold dilution steps. Reactions were carried out for 60 minutes and quenched with 20 μL per well of 1.96 mM SAH, 50 mM Tris PH 8.5, 200 mM EDTA. Stopped reactions were transferred to SAV coated Flashplates (Perkin Elmer), incubated for 120 min, washed with a plate washer, and then read on the TopCount NXT (1.0 min/well) to measure the amount of methyl histone product formed during the reaction.

EZH2 = EZH2 (Homo sapiens, UniProt Q15910); assay: EZH2 activity inhibition assay (rPRC2, 3H SAM, biotinylated oligonucleosomes, FlashPlate); assay type: biochemical; conditions: rPRC2, 2 nM EZH2, 0.2 μM 3H SAM, top concentration 80 μM
EZH2, sequence (Q15910 whole entry): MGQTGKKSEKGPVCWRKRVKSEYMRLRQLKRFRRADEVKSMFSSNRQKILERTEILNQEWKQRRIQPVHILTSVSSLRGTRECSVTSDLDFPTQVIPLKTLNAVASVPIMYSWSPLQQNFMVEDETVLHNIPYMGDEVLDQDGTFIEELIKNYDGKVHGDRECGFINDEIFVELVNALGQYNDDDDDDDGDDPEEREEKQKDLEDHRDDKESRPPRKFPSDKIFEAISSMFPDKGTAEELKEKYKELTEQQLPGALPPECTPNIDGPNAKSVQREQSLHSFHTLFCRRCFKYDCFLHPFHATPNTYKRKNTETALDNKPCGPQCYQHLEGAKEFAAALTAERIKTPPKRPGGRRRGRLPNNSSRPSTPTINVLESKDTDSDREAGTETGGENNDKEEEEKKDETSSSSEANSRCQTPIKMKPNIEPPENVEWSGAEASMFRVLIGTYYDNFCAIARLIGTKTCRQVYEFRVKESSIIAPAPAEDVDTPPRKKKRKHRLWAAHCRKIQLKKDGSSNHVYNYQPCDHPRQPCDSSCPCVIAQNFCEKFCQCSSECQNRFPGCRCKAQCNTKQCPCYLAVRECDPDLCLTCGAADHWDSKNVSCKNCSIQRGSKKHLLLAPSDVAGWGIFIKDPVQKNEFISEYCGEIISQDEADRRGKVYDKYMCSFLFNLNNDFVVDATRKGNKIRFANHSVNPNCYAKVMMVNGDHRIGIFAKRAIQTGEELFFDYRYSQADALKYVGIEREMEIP
EZH2, sequence (O75530 whole entry partner): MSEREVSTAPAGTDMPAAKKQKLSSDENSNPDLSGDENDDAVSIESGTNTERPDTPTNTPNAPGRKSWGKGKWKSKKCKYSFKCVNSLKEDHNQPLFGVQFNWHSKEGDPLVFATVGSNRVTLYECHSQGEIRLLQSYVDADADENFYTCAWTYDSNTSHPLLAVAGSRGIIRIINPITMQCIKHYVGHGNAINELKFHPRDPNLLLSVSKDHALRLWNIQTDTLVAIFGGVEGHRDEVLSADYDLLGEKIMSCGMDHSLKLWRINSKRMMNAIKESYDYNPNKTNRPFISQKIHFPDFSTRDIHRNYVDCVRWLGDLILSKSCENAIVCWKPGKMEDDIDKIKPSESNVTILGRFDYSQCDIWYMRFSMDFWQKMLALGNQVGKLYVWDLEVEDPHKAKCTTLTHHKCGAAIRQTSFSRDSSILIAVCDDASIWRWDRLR
EZH2, sequence (Q15022 whole entry partner): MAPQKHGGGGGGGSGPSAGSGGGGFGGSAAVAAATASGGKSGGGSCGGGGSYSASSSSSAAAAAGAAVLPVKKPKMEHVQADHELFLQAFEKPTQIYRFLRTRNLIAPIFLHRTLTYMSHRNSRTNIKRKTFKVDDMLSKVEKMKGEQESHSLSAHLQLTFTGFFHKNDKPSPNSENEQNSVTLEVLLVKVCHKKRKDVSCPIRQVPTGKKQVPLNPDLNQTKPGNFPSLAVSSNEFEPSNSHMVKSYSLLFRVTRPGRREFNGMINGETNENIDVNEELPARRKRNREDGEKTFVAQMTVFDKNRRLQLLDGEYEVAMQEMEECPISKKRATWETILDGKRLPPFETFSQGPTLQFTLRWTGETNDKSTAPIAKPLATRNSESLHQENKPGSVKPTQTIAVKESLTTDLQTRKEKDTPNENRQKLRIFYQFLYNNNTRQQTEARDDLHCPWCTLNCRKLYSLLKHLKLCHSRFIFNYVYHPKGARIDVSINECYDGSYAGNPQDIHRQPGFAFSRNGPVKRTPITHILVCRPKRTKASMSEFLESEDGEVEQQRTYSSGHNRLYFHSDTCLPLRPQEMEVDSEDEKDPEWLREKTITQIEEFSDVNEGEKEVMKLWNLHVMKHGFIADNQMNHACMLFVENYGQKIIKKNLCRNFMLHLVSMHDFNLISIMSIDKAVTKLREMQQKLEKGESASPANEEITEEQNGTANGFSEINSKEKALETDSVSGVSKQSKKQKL
Procedure: as §1, with “Elmer).” for “Elmer). The final assay conditions for EZH2 were as follows: 50 mM Tris Buffer pH 8.5, 1 mM DTT, 69 μM Brij-35 detergent, 5.0 mM MgCl2, 0.1 mg/mL BSA, 0.2 μM ^3H SAM, 0.2 μM biotinylated oligonucleosomes, 3.6 μM H3K27me3 peptide and 2 nM EZH2.”
as §2, with “The final concentrations of compounds ranged from a top default concentration of 80 μM down to 0.16 μM in ten 2-fold dilution steps. Reactions were carried out for 60 minutes and quenched with 20 μL per well of 1.96 mM SAH, 50 mM Tris PH 8.5, 200 mM EDTA.” left out

Y641N EZH2, sequence (Q15910 whole entry Y641N): as the sequence (Q15910 whole entry) above, with Y641N counted along it
Y641N EZH2, sequence (O75530 whole entry partner): as the sequence (O75530 whole entry partner) above
Y641N EZH2, sequence (Q15022 whole entry partner): as the sequence (Q15022 whole entry partner) above

| IC50 (Y641N EZH2) | IC50 (EZH2) | SMILES |
| --- | --- | --- |
| > 80 µM | 10 to 50 µM | Cc1cc(C)c(CNC(=O)c2ccc(CN(C)c3ccccc3)cc2)c(=O)[nH]1 [Compound I-36, N-((2-hydroxy-4,6-dimethylpyridin-3-yl)methyl)-4-((methyl(phenyl)amino)methyl)benzamide] |
| 1 to 10 µM | 1 to 10 µM | Cc1cc(C)c(CNC(=O)c2ccc(Oc3ccccc3)c(C)c2)c(=O)[nH]1 [Compound I-37, N-((2-hydroxy-4,6-dimethylpyridin-3-yl)methyl)-3-methyl-4-phenoxybenzamide] |
| 1 to 10 µM | < 1 µM | Cc1cc(C)c(CNC(=O)c2ccc(C(C)Oc3ccccc3C)cc2)c(=O)[nH]1 (stereo not drawn) [Compound I-38, N-((2-hydroxy-4,6-dimethylpyridin-3-yl)methyl)-4-(1-(o-tolyloxy)ethyl)benzamide] |
| < 1 µM | < 1 µM | Cc1cccc(OC(C)c2ccc(C(=O)NCc3c(C)cc(C)[nH]c3=O)cc2)c1 (stereo not drawn) [Compound I-39, N-((2-hydroxy-4,6-dimethylpyridin-3-yl)methyl)-4-(1-(m-tolyloxy)ethyl)benzamide] |
| 10 to 50 µM | 1 to 10 µM | Cc1cc(C)c(CNC(=O)c2ccc(CNc3ccccc3)cc2)c(=O)[nH]1 [Compound I-40, N-((2-hydroxy-4,6-dimethylpyridin-3-yl)methyl)-4-((phenylamino)methyl)benzamide] |
| < 1 µM | < 1 µM | Cc1cc(C)c(CNC(=O)c2ccc(C(C)Oc3ccccc3F)cc2)c(=O)[nH]1 (stereo not drawn) [Compound I-41, 4-(1-(2-fluorophenoxy)ethyl)-N-((2-hydroxy-4,6-dimethylpyridin-3-yl)methyl)benzamide] |
| < 1 µM | < 1 µM | Cc1cc(C)c(CNC(=O)c2ccc(C(C)Oc3cccc(F)c3)cc2)c(=O)[nH]1 (stereo not drawn) [Compound I-42, 4-(1-(3-fluorophenoxy)ethyl)-N-((2-hydroxy-4,6-dimethylpyridin-3-yl)methyl)benzamide] |
| > 50 µM | 10 to 50 µM | Cc1cc(C)c(CNC(=O)c2ccc(C(Oc3ccccc3)C(C)C)cc2)c(=O)[nH]1 (stereo not drawn) [Compound I-43, N-((2-hydroxy-4,6-dimethylpyridin-3-yl)methyl)-4-(2-methyl-1-phenoxypropyl)benzamide] |
| < 1 µM | < 1 µM | CCC(Oc1ccccc1)c1ccc(C(=O)NCc2c(C)cc(C)[nH]c2=O)cc1 (stereo not drawn) [Compound I-44, N-((2-hydroxy-4,6-dimethylpyridin-3-yl)methyl)-4-(1-phenoxypropyl)benzamide] |
| > 80 µM | > 50 µM | Cc1cc(C)c(CNC(=O)c2ccc3c(c2)CCC3Oc2ccccc2)c(=O)[nH]1 (stereo not drawn) [Compound I-45, N-((2-hydroxy-4,6-dimethylpyridin-3-yl)methyl)-1-phenoxy-2,3-dihydro-1H-indene-5-carboxamide] |
| < 1 µM | < 1 µM | Cc1cc(C)c(CNC(=O)c2ccc(C(C)Oc3ccc(F)cc3)cc2)c(=O)[nH]1 (stereo not drawn) [Compound I-46, 4-(1-(4-fluorophenoxy)ethyl)-N-((2-hydroxy-4,6-dimethylpyridin-3-yl)methyl)benzamide] |
| 10 to 50 µM | > 50 µM | Cc1cc(C(F)(F)F)[nH]c(=O)c1CNC(=O)c1ccc(Oc2ccccc2)cc1 [Compound I-47, N-((2-hydroxy-4-methyl-6-(trifluoromethyl)pyridin-3-yl)methyl)-4-phenoxybenzamide] |
| > 80 µM | 1 to 10 µM | Cc1cc(C)c(CNC(=O)c2ccc(CCc3ccccc3)cc2)c(=O)[nH]1 [Compound I-48, N-((2-hydroxy-4,6-dimethylpyridin-3-yl)methyl)-4-phenethylbenzamide] |
| 10 to 50 µM | 10 to 50 µM | Cc1cc(C)c(CNC(=O)c2ccc(C(CC(C)C)Oc3ccccc3)cc2)c(=O)[nH]1 (stereo not drawn) [Compound I-49, N-((2-hydroxy-4,6-dimethylpyridin-3-yl)methyl)-4-(3-methyl-1-phenoxybutyl)benzamide] |
| > 80 µM | 1 to 10 µM | Cc1cc(C)c(CNC(=O)c2ccc([C@@H](C)Oc3ccccc3)cc2C)c(=O)[nH]1 [Compound I-50] |
| > 80 µM | 1 to 10 µM | Cc1cc(C)c(CNC(=O)c2ccc(C3Cc4ccccc4O3)cc2)c(=O)[nH]1 (stereo not drawn) [Compound I-51, 4-(2,3-dihydrobenzofuran-2-yl)-N-((2-hydroxy-4,6-dimethylpyridin-3-yl)methyl)benzamide] |
| 10 to 50 µM | 10 to 50 µM | Cc1cc(C)c(CNC(=O)c2ccc3c(c2)CCCC3Oc2ccccc2)c(=O)[nH]1 (stereo not drawn) [Compound I-52, N-((2-hydroxy-4,6-dimethylpyridin-3-yl)methyl)-5-phenoxy-5,6,7,8-tetrahydronaphthalene-2-carboxamide] |
| 10 to 50 µM | 10 to 50 µM | COC(c1ccccc1)c1ccc(C(=O)NCc2c(C)cc(C)[nH]c2=O)cc1 (stereo not drawn) [Compound I-53, N-((2-hydroxy-4,6-dimethylpyridin-3-yl)methyl)-4-(methoxy(phenyl)methyl)benzamide] |
| 1 to 10 µM | < 1 µM | Cc1cc(C)c(CNC(=O)c2ccc(COc3ccccc3)c(C)c2)c(=O)[nH]1 [Compound I-54, N-((2-hydroxy-4,6-dimethylpyridin-3-yl)methyl)-3-methyl-4-(phenoxymethyl)benzamide] |
| < 1 µM | < 1 µM | Cc1cc(C)c(CNC(=O)c2ccc([C@H](C)Oc3ccccc3)cc2C)c(=O)[nH]1 [Compound I-55, (S)—N-((2-hydroxy-4,6-dimethylpyridin-3-yl)methyl)-2-methyl-4-(1-phenoxyethyl)benzamide] |
| > 80 µM | 1 to 10 µM | Cc1cc(C)c(CNC(=O)c2ccc(C(C)n3ccccc3=O)cc2)c(=O)[nH]1 (stereo not drawn) [Compound I-56, N-((2-hydroxy-4,6-dimethylpyridin-3-yl)methyl)-4-(1-(2-oxopyridin-1(2H)-yl)ethyl)benzamide] |
| 1 to 10 µM | 1 to 10 µM | Cc1nc(C)c(CNC(=O)c2ccc(Oc3ccccc3)cc2)c(=O)[nH]1 [Compound I-59, N-((4-hydroxy-2,6-dimethylpyrimidin-5-yl)methyl)-4-phenoxybenzamide] |
| 1 to 10 µM | < 1 µM | Cc1cc(C)c(CNC(=O)c2ccc(C(C)Oc3ccccn3)cc2)c(=O)[nH]1 (stereo not drawn) [Compound I-60, N-((2-hydroxy-4,6-dimethylpyridin-3-yl)methyl)-4-(1-(pyridin-2-yloxy)ethyl)benzamide] |
| < 1 µM | < 1 µM | Cc1cc(C)c(CNC(=O)c2ccc(C(C)Oc3ccccc3)c(F)c2)c(=O)[nH]1 (stereo not drawn) [Compound I-63, 3-fluoro-N-((2-hydroxy-4,6-dimethylpyridin-3-yl)methyl)-4-(1-phenoxyethyl)benzamide] |
| > 80 µM | 1 to 10 µM | Cc1cc(C)c(CNC(=O)c2ccc(C(C)Oc3ccccc3)nc2)c(=O)[nH]1 (stereo not drawn) [Compound I-64, N-((2-hydroxy-4,6-dimethylpyridin-3-yl)methyl)-6-(1-phenoxyethyl)nicotinamide] |
| > 80 µM | 10 to 50 µM | Cc1cc(C(F)(F)F)c(CNC(=O)c2ccc(Oc3ccccc3)cc2)c(=O)[nH]1 [Compound I-65, N-((2-hydroxy-6-methyl-4-(trifluoromethyl)pyridin-3-yl)methyl)-4-phenoxybenzamide] |
| < 1 µM | < 1 µM | Cc1cc(C)c(CNC(=O)c2ccc(C(C)Oc3ccccc3)cc2Cl)c(=O)[nH]1 (stereo not drawn) [Compound I-66, 2-chloro-N-((2-hydroxy-4,6-dimethylpyridin-3-yl)methyl)-4-(1-phenoxyethyl)benzamide] |
| < 1 µM | < 1 µM | Cc1cc(C)c(CNC(=O)c2ccc([C@H](C)Oc3cccc(-c4ccc(N)nc4)c3)cc2)c(=O)[nH]1 [Compound I-69] |
| > 80 µM | 10 to 50 µM | Cc1cc(C)c(CNC(=O)c2ccc(C(C)Oc3ncccn3)cc2)c(=O)[nH]1 (stereo not drawn) [Compound I-76, N-((2-hydroxy-4,6-dimethylpyridin-3-yl)methyl)-4-(1-(pyrimidin-2-yloxy)ethyl)benzamide] |
| > 80 µM | 1 to 10 µM | Cc1cc(C)c(CNC(=O)c2ccc(C(C)Oc3cccnc3)nc2)c(=O)[nH]1 (stereo not drawn) [Compound I-78, N-((2-hydroxy-4,6-dimethylpyridin-3-yl)methyl)-6-(1-(pyridin-3-yloxy)ethyl)nicotinamide] |
